Measurements taken from article PMC7395068, “The evolution of strategies to minimise the risk of human drug-induced liver injury (DILI) in drug discovery and development” (Archives of Toxicology, 2020).
Where two headings read alike, the source gives them in different places.

What was measured:
[1] = Plasma free fraction (fu) and unbound Cmax (Cmax,u); assay type: in vitro ADME, human; conditions: unbound plasma Cmax
[2] = cited from earlier work
[3] = test system: HepG2 cells; conditions: cited from earlier work
[4] = test system: HepG2 cells; conditions: cited from earlier work; remark: listed apart in the source
[5] = test system: human hepatocytes; conditions: cited from earlier work
[6] = test system: THLE or HepG2 cells, isolated mitochondria, BSEP; conditions: cited from earlier work
[7] = test system: PHH; conditions: cited from earlier work
[8] = test system: hLiMTs; conditions: cited from earlier work
[9] = test system: PHH spheroids; conditions: cited from earlier work
[10] = read-out: Human plasma Cmax; total plasma Cmax.tot, median of 9 literature references; cited from earlier work
[11] = plasma free fraction; cited from earlier work
[12] = cited from earlier work; remark: listed apart in the source
[13] = test system: THLE-Null and THLE-3A4 cells; conditions: In vitro Assay; ref Gustafsson 2014; cited from earlier work
[14] = test system: HepG2 cells, primary human hepatocytes; conditions: In vitro Assay; ref Garside 2014; cited from earlier work
[15] = test system: Upcyte human hepatocytes; conditions: In vitro Assay; ref Tolosa 2019; cited from earlier work
[16] = ref Chen 2011; cited from earlier work
[17] = test system: rBsep; conditions: In vitro Assay; ref Dawson 2012; cited from earlier work
[18] = test system: hLiMTs; test: Combined HCI (HCS) and cellular ATP 3D assay in hLiMTs; conditions: for AC50 / minimal effective concentration: Homo sapiens
[19] = test system: HepaRG spheroids; test: Combined HCI (HCS) and cellular ATP 3D assay in HepaRG spheroids; conditions: for AC50 / minimal effective concentration: Homo sapiens
[20] = Modeled in vitro assays (cytotoxicity, mitochondrial dysfunction, BSEP), ref Aleo et al. 2019
[21] = In vitro Assay, ref Proctor 2017
[22] = Microtissue model structural based (HCI), combined HCS and ATP, MEC < 25 × Cmax.tot cut-off

Human plasma Cmax,u [1]: 5.048 µM
hLiMTs <25x Avg Cmax ATP ([18]; hLiMTs, ATP endpoint, cut-off <25x Avg Cmax): +ve
hLiMTs <100x Avg Cmaxu ATP ([18]; hLiMTs, ATP endpoint, cut-off <100x Avg Cmaxu): +ve (<100x Avg Cmaxu)
hLiMTs <25x Avg Cmax HCS ([18]; hLiMTs, HCS endpoints, cut-off <25x Avg Cmax): +ve
hLiMTs <100x Avg Cmaxu HCS ([18]; hLiMTs, HCS endpoints, cut-off <100x Avg Cmaxu): +ve (<100x Avg Cmaxu)
hLiMTs <25x Avg Cmax All ([18]; hLiMTs, all endpoints (ATP and HCS), cut-off <25x Avg Cmax): +ve
hLiMTs Cmax max All ([18]; hLiMTs, all endpoints, Cmax max used): +ve
hLiMTs Cmax min All ([18]; hLiMTs, all endpoints, Cmax min used): +ve
hLiMTs <10 uM All ([18]; hLiMTs, all endpoints, cut-off <10 uM): +ve (<10 uM)
hLiMTs <100x Avg Cmaxu All ([18]; hLiMTs, all endpoints, cut-off <100x Avg Cmaxu): +ve (<100x Avg Cmaxu)
HepaRG <25x Avg Cmax ATP ([19]; HepaRG, ATP endpoint, cut-off <25x Avg Cmax): +ve
HepaRG <100x Avg Cmaxu ATP ([19]; HepaRG, ATP endpoint, cut-off <100x Avg Cmaxu): +ve (<100x Avg Cmaxu)
HepaRG <25x Avg Cmax HCS ([19]; HepaRG, HCS endpoints, cut-off <25x Avg Cmax): +ve
HepaRG <100x Avg Cmaxu HCS ([19]; HepaRG, HCS endpoints, cut-off <100x Avg Cmaxu): +ve (<100x Avg Cmaxu)
HepaRG <25x Avg Cmax All ([19]; HepaRG, all endpoints (ATP and HCS), cut-off <25x Avg Cmax): +ve
HepaRG Cmax max All ([19]; HepaRG, all endpoints, Cmax max used): +ve
HepaRG Cmax min All ([19]; HepaRG, all endpoints, Cmax min used): +ve
HepaRG <10 uM All ([19]; HepaRG, all endpoints, cut-off <10 uM): +ve (<10 uM)
HepaRG <100x Avg Cmaxu All ([19]; HepaRG, all endpoints, cut-off <100x Avg Cmaxu): +ve (<100x Avg Cmaxu)
SMILES: Cn1cnc([N+](=O)[O-])c1Sc1ncnc2nc[nH]c12 [azathioprine]
DILI severity category (Chen et al. [2016]) ([2]; LTKB DILIrank category, ref Chen et al. 2016): Most
DILI severity category (Chen 2016) ([2]; human DILI classification, LTKB DILIrank, ref Chen et al. 2016): Most
DILI severity category ([2]; human DILI severity, ref Chen et al.): Most
DILI +VE (5-8), DILI -VE (-4) ([2]; ref Chen 2016): +VE
DILI severity category ([2]; ref Chen 2016): vMost-DILI-Concern
Structural based (HCI) ([3]; In vitro Assay, ref O'Brien 2006): +VE
DILI in vitro assay prediction, O'Brien (2006) ([3]; Structural based (HCI), HepG2, ref O'Brien et al. 2006): +VE (lowest HCI endpoint IC50 (or in the absence of dose–response < 100 µM) < 30 × total human plasma exposure levels (Cmax.tot))
Structural based (HCI) ([4]; In vitro Assay, ref Tolosa 2012): +VE
DILI in vitro assay prediction, Tolosa (2012) ([4]; Structural based (HCI), HepG2, ref Tolosa et al. 2012): +VE
Structural based (HCI) ([5]; In vitro Assay, ref Xu 2008): +VE
DILI in vitro assay prediction, Xu (2008) ([5]; Structural based (HCI), human hepatocytes, ref Xu et al. 2008): +VE
Partition Hybrid HRM Score ([6]; In vitro Assay, ref Aleo 2019): -VE
Ro2 Hybrid HRM Score ([6]; In vitro Assay, ref Aleo 2019): +VE
Partition Hybrid HRM Score ≥4, Aleo (2019) [6, 20]: -VE
Partition Hybrid HRM Score ≥8, Aleo (2019) [6, 20]: -VE
Rule of Two hybrid HRM Score ≥3, Aleo (2019) [6, 20]: +VE (Rule of Two hybrid HRM Score ≥3)
Rule of Two hybrid HRM Score ≥8, Aleo (2019) [6, 20]: -VE
PHH/100xCmax, Proctor (2017) ([7]; 2D PHH, ATP, IC50 < 100 × Cmax.tot, ref Proctor et al. 2017): -VE
PHH/100uM, Proctor (2017) ([7]; 2D PHH, ATP, IC50 threshold 100 µM, ref Proctor et al. 2017): -VE
PHH ATP <100uM [7, 21]: -VE
hLiMTs ATP <100uM [8, 21]: +VE (IC50 threshold of 100 µM)
hLiMTs/100xCmax, Proctor (2017) ([8]; hLiMTs, ATP, IC50 < 100 × Cmax.tot, ref Proctor et al. 2017): +VE (IC50 < 100 × Cmax.tot)
hLiMTs/100uM, Proctor (2017) ([8]; hLiMTs, ATP, IC50 threshold 100 µM, ref Proctor et al. 2017): +VE (IC50 threshold of 100 µM)
hLiMTs ATP <20 x Cmax ([9]; In vitro Assay, ref Vorrink 2018): +VE (IC20 < 20 × Cmax.tot cut-off)
DILI in vitro assay prediction, Vorrink (2018) ([9]; PHH spheroids, ATP, 14 days, IC20 < 20 × Cmax.tot, ref Vorrink et al. 2018): +VE (IC20 < 20 × Cmax.tot cut-off)
Cmax [10]: 7.21 µM
fu [11]: 0.700
Assigned DILI category ([12]; Chen et al. 2016 or literature alignment, ref Chen et al. 2016): 3
In vivo DILI ([12]; […]): +VE
In vivo DILI ([12]; ref Aleo 2019): +VE
In vivo DILI ([12]; ref Dawson 2012): +VE
In vivo DILI ([12]; ref Garside 2014): +VE
In vivo DILI ([12]; ref Gustafsson 2014): +VE
In vivo DILI ([12]; ref O'Brien 2006): +VE
In vivo DILI ([12]; ref Proctor 2017): +VE
In vivo DILI ([12]; ref Tolosa 2012): +VE
In vivo DILI ([12]; ref Tolosa 2019): +VE
In vivo DILI ([12]; ref Vorrink 2018): +VE
In vivo DILI ([12]; ref Xu 2008): +VE
THLE-Null [13]: -VE
THLE-Null/3A4 [13]: -VE
Cluster 1-6 +VE Assay [14]: -VE
Upcytes multi donor assay 14day data [15]: +VE
DILI Score (FDA) (1-8) [16]: 3
Inhibition of rBsep cutoff<1& cmax u>.2 [17]: -VE
Inhibition of rBsep cutoff<3 [17]: -VE
AC50 ([18]; read-out: ATP endpoint AC50): 1180 nM
minimal effective concentration ([18]; read-out: ATP endpoint MEC): 0.361 µM
AC50 ([18]; read-out: HCS endpoint AC50): 41600 nM
minimal effective concentration ([18]; read-out: HCS endpoint MEC): 1.58 µM
DILI prediction hLiMTs (HCS-MEC) [18, 22]: +VE (MEC < 25 × Cmax.tot cut-off)
AC50 ([19]; HepaRG, read-out: ATP endpoint AC50): 480 nM
minimal effective concentration ([19]; HepaRG, read-out: ATP endpoint MEC): 0.278 µM
AC50 ([19]; HepaRG, read-out: HCS endpoint AC50): 2000 nM
minimal effective concentration ([19]; HepaRG, read-out: HCS endpoint MEC): 0.0805 µM
DILI prediction HepaRG spheroids (HCS-MEC) [19, 22]: +VE (MEC < 25 × Cmax.tot cut-off)
